Test results as given in patent US4626540A, “Substituted 1-amino-4-nitro-acridinones and methods of treating bacterial infections and leukemia with them” (Warner-Lambert Company, priority 1984, dated 1986).
Read-outs that look alike come from different tables or passages of the source.

Assays:
[1] = test system: L1210 murine leukemia cell lines; assay: In vitro antitumor screening (PDC test), L1210 murine leukemia cell growth; format: cell-based; conditions: Mus musculus, 72 h; L1210 cells, 37° C., three days; value is ID50 multiplied by 10^7
Experimental: Another test protocol is the in vitro antitumor screening (PDC test) of compounds of the present invention on L1210 murine leukemia cell lines. L1210 cells, a murine leukemia cell line, were grown in RPMI 1640 supplemented with 5% fetal bovine serum and gentamicin (50 μg/ml).
Drug dilutions were prepared in the apropriate solvent and 20 μl of each dilution were added to 24-well Linbro tissue culture plats, followed by the addition of M 2.0 ml of cell suspension containing 3×10^4 cells per ml. Solvent and medium controls were included in each test. After incubation at 37° C. for three days in 5% CO2, the contents of each well were removed and the cells counted in a ZBI Coulter counter. Percent growth was calculated relative to the controls and the levels of drug activity wre expressed as ID50 in moles per liter using probit paper.

HCT-8 cells = assay: In vitro proliferating human colon adenocarcinoma (HCA) cell screen, HCT-8 cells; format: cell-based; conditions: 60-65 hours at 37° C., value is ID50 multiplied by 10^7;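 note: ID50 is the molar concentration giving 50% growth inhibition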
Experimental: One test protocol is the in vitro proliferating human colon adenocarcinoma (HCA) cell screen. In this test, HCT-8 cells (HCA cell line received from Yale University) are trypsinized using trypsin-EDTA. A single cell suspension is achieved by passing the cells through a 26-gauge needle with a 20-cc syringe. A cell suspension is prepared using RPMI 1640+10% FCS+50 μg/ml gentamicin sulfate with a cell concentration of approximately 5,000 cells/ml. The cell suspension is dispensed in Linbro 24-well plates; 1 ml/well. The plates are incubated for approximately 48 hours at 37° C. in a 5% CO2 atmosphere. At this time test compounds are added in the appropriate concentration. Ten μl of the appropriate dilution is added to each well for a titration test. The plates are reincubated an additional 60-65 hours at 37° C. in a 5% CO2 atmosphere. The cells are lysed using a mix of cationic surfactant, glacial acetic acid and sodium chloride. Two ml of the lysed cell suspension from each well is added to 8 ml of diluent. The number of nuclei is determined using a Coulter counter (ZBI model), and a percent growth for each drug concentration is calculated.

[2] = test system: lymphocytic leukemia P388; assay: In vivo lymphocytic leukemia P388 test; set-up: species or system CD2 F1 mice; conditions: Mus musculus, P388, ip, read-out: P388 in vivo T/C × 100
Experimental: Another test protocol is the in vivo lymphocytic leukemia P388 test. the animals used are either male or female CD2 F1 mice, six or seven animals per test group. The tumor transplant is by intraperitoneal injection of dilute ascitic fluid containing cells of lymphocytic leukemia P388. The test compounds are administered intraperitoneally once daily for five consecutive days at various doses following tumor inoculation. The animals are weighed and survivors are recorded on a regular basis for 30 days. A compound is designated "toxic" if, at a given dose, all animals die prior to four days after the first injection of drug. A ratio of survival time for treated (T)/control (C) animals is calculated. A criterion for efficacy is a ratio T/C times 100 greater than or equal to 125. See Cancer Chemotherapy Reports, Part 3, 3, 1 (1972) for a comprehensive discussion of the protocol.

Escherichia coli = assay: In vitro antibacterial (ABMF) microdilution test, Escherichia coli; format: cell-based; conditions: Mueller-Hinton broth, 37° C., 16-24 hours, read-out: ABMF minimal inhibitory conc, E. coli
Text: (§1) Still another test protocol is the in vitro antibacterial (ABMF) test which is a recognized standard microdilution susceptibility procedure in Mueller-Hinton broth against Gram-positive and Gram-negative bacterial test organisms. The procedure is a modification of a state-of-the-art procedure reported in Manual of Clinical Microbiology, Lennette, E. H., ed., by Barry, A. L. and C. Thornsberry at pages 463-474 and by Gavan, T. L. and A. L. Barry at pages 459-462, American Society for Microbiology, Washington, 1980.
(§2) In the test, a given bacterial culture is used to inoculate individual test wells of microdilution trays containing growth medium and test compound, the latter in a microdilution series: 1000, 333, 111, 37, 12, 4, 1.4, and 0.46 micrograms per milliliter. […] For convenience, values are reported for Escherichia coli, Corynebacterium Sp. ATCC 21698, Branhamella catarrhalis, Streptococcus pneumoniae, and Bacillus cereus.

[3] = test system: Corynebacterium Sp. ATCC 21698; assay: In vitro antibacterial (ABMF) microdilution test, Corynebacterium Sp.; format: cell-based; conditions: ATCC21698, Mueller-Hinton broth, 37° C., 16-24 hours, read-out: ABMF minimal inhibitory conc, Coryn. Species
Text: as §1, §2

Branhamella catarrhalis = assay: In vitro antibacterial (ABMF) microdilution test, Branhamella catarrhalis; format: cell-based; conditions: Moraxella catarrhalis; Mueller-Hinton broth, 37° C., 16-24 hours; read-out: ABMF minimal inhibitory conc, B. cat.
Text: as §1, §2

Streptococcus pneumoniae = assay: In vitro antibacterial (ABMF) microdilution test, Streptococcus pneumoniae; format: cell-based; conditions: Mueller-Hinton broth, 37° C., 16-24 hours, read-out: ABMF minimal inhibitory conc, S. pneu.
Text: as §1, §2

Bacillus cereus = assay: In vitro antibacterial (ABMF) microdilution test, Bacillus cereus; format: cell-based; conditions: Mueller-Hinton broth, 37° C., 16-24 hours, read-out: ABMF minimal inhibitory conc, B. cer.
Text: as §1, §2

[4] = intraperitoneal, once daily for five days, survival time treated/control
[5] = 50 mg/kg, intraperitoneal, once daily for five days, survival time treated/control

SMILES | IC50 [1] [µM] | IC50 (HCT-8 cells) [µM] | response vs control in vivo at 12.5 mg/kg [2, 4] [%] | MIC (Escherichia coli) [µg/mL] | MIC [3] [µg/mL] | MIC (Branhamella catarrhalis) [µg/mL] | MIC (Streptococcus pneumoniae) [µg/mL] | MIC (Bacillus cereus) [µg/mL] | response vs control in vivo at 25 mg/kg [2, 4] [%] | response vs control in vivo at 50 mg/kg [2, 5] [%] | response vs control in vivo at 100 mg/kg [2, 4] [%] | response vs control in vivo at 200 mg/kg [2, 4] [%] | response vs control in vivo at 50 mg/kg ([2]; 120 h) [%]
CCN(CC)CCNc1ccc([N+](=O)[O-])c2[nH]c3ccc(O)cc3c(=O)c12 [Example 2, 1-[[2-(Diethylamino)ethyl]amino]-7-hydroxy-4-nitro-9(10H)-acridinone, methanesulfonate (1:1), hydrate (1:1)] | 0.0067 | 0.0045 | 250 | < 0.46 | < 0.46 | < 0.46 | < 0.46 | < 0.46 |  |  |  |  | 
CCN(CC)CCNc1ccc([N+](=O)[O-])c2[nH]c3ccc(OC)cc3c(=O)c12.CS(=O)(=O)O [Example 3, 1-[[2-(Diethylamino)ethyl]amino]-7-methoxy-4-nitro-9(10H)-acridinone, methanesulfonate (1:1)] | 2.4 | 1.1 | 126 | 111 | < 0.46 | < 0.46 | < 0.46 | 4.1 | 151 | 178 | 237 | 296 | 
CCOc1ccc2[nH]c3c([N+](=O)[O-])ccc(NCCN(CC)CC)c3c(=O)c2c1.CS(=O)(=O)O [Example 4, 1-[[2-(Diethylamino)ethyl]amino]-7-ethoxy-4-nitro-9(10H)-acridinone, methanesulfonate (1:1)] | 0.68 | 0.4 | 129 | > 1000 | 4.1 | 37 | > 1000 | > 1000 | 149 | 211 | 273 |  | 
CCN(CC)CCNc1ccc([N+](=O)[O-])c2[nH]c3ccc(N(C)C)cc3c(=O)c12.CS(=O)(=O)O [Example 7, 1-[[2-(Diethylamino)ethyl]amino]-7-(dimethylamino)-4-nitro-9(10H)-acridinone, methanesulfonate (1:1)] | 1.3 | 0.56 |  | > 1000 | 111 | > 1000 | 37 | > 1000 |  | 33 | 169 |  | 
CN(C)CCNc1ccc([N+](=O)[O-])c2[nH]c3ccccc3c(=O)c12 [Example 8, 1-[[2-(Dimethylamino)ethyl]amino]-4-nitro-9(10H)-acridinone, methanesulfonate (1:1), hemihydrate] | 0.39 | 0.34 |  | 1.4 | < 0.46 | < 0.46 | < 0.46 | 4.1 | 142 | 185 |  |  | 
COc1ccc2[nH]c3c([N+](=O)[O-])ccc(NCCN(C)C)c3c(=O)c2c1.CS(=O)(=O)O [Example 9, 1-[[2-(Dimethylamino)ethyl]amino]-7-methoxy-4-nitro-9(10H)-acridinone, methanesulfonate (1:1)] | 0.26 | 0.89 |  | > 1000 | < 0.46 | < 0.46 | < 0.46 | > 1000 | 124 | 146 | 201 | 269 | 
CCOc1ccc2[nH]c3c([N+](=O)[O-])ccc(NCCN(C)C)c3c(=O)c2c1.CS(=O)(=O)O [Example 10, 1-[[2-(Dimethylamino)ethyl]amino]-7-ethoxy-4-nitro-9(10H)-acridinone, methanesulfonate (1:1)] | 0.81 | 0.36 |  | > 1000 | > 1000 | > 1000 | > 1000 | > 1000 | 128 | 162 | 193 | 260 | 
COc1ccc2[nH]c3c([N+](=O)[O-])ccc(NC(C)CN(C)C)c3c(=O)c2c1 (stereo not shown) [Example 12, 1-[[2-Dimethylamino)-1-methylethyl]amino]-7-methoxy-4-nitro-9(10H)-acridinone, methanesulfonate, 1.25 hydrate] | 0.88 | 0.45 |  | 1.4 | 4.1 | 4.1 | < 0.46 | 4.1 | 122 | 144 | 180 | 245 | 
CCOc1ccc2[nH]c3c([N+](=O)[O-])ccc(NC(C)CN(C)C)c3c(=O)c2c1 (stereo not shown) [Example 13, 1[[2-(Dimethylamino)-1-methylethyl]amino]-7-ethoxy-4-nitro-9(10H)-acridinone, monomethanesulfonate, hyrate] | 1.09 | 0.5 |  | 12.3 | < 0.46 | 4.1 | 1.4 | 12.3 | 180 |  |  |  | 227
O=c1c2ccccc2[nH]c2c([N+](=O)[O-])ccc(NCCNCCO)c12 [Example 16, 1-[[2-[(2-hydroxyethyl)amino]ethyl]amino]-4-nitro-9(10H)-acridinone, methanesulfonate (1:1), hydrate (1:1)] | 0.33 | 0.2 |  | 1.4 | < 0.46 | < 0.46 | 1.4 | 1.4 | 125 | 159 |  |  | 
CCOc1ccc2[nH]c3c([N+](=O)[O-])ccc(NCCNCCO)c3c(=O)c2c1.CS(=O)(=O)O [Example 17, 7-Ethoxy-1-[[2-[(2-hydroxyethyl)amino]ethyl]amino]-4-nitro-9(10H)-acridinone, methanesulfonate] | 0.18 | 0.12 |  | < 0.46 | < 0.46 | 1.4 | 1.4 | 4.1 | 124 | 138 |  |  | 
